Measurements: US12421240B2, “Hydropyrazino[1,2-d][1,4]diazepine compounds for the treatment of autoimmune disease” (Hoffmann-La Roche Inc., priority 2019, dated 2025)

Molecular target: T1, human TLR9 (Homo sapiens, UniProt Q9NR96)
T1 sequence (Q9NR96 26-1032): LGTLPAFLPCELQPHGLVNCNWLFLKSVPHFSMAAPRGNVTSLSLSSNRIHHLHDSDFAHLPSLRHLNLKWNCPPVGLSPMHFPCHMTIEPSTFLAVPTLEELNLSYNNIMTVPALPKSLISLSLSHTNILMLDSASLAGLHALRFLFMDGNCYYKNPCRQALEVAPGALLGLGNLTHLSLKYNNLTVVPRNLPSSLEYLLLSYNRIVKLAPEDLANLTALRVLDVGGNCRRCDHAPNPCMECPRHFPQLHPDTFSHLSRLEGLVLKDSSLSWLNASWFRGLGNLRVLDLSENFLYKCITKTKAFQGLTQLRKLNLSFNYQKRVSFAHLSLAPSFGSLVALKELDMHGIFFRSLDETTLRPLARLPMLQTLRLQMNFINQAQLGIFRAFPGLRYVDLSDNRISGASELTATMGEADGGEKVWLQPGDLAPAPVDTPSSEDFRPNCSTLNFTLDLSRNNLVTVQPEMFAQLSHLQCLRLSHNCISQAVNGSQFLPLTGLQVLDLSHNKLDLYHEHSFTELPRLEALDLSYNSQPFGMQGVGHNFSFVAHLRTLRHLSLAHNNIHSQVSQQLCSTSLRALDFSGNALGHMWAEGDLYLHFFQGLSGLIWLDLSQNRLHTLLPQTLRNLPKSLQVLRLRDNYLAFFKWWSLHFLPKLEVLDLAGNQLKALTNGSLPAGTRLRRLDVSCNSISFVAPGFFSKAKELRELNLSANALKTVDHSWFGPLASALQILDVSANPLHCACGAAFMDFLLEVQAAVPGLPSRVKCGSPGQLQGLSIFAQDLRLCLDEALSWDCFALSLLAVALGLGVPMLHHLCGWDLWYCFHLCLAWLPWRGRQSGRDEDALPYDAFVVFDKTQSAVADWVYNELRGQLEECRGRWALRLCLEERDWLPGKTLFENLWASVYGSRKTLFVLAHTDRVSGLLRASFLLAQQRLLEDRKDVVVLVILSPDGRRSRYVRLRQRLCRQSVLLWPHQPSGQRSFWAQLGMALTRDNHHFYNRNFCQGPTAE
Experiment: HEK293-Blue-hTLR-9 cells assay (SEAP reporter, ODN2006 stimulation)
Assay type: cell-based
Details: HEK293-Blue-hTLR9 cells, ODN2006 ligand, 20 hrs; read-out: HEK/hTLR9 IC50
Method: The following tests were carried out in order to determine the activity of the compounds of formula (I), (Ia) or (Ib) in HEK293-Blue-hTLR-7/8/9 cells assay.
HEK293-Blue-hTLR-9 Cells Assay:
A stable HEK293-Blue-hTLR-9 cell line was purchased from InvivoGen (Cat. #: hkb-htlr9, San Diego, California, USA). These cells were originally designed for studying the stimulation of human TLR9 by monitoring the activation of NF-κB. A SEAP (secreted embryonic alkaline phosphatase) reporter gene was placed under the control of the IFN-β minimal promoter fused to five NF-κB and AP-1-binding sites. The SEAP was induced by activating NF-κB and AP-1 via stimulating HEK-Blue hTLR9 cells with TLR9 ligands. Therefore the reporter expression was declined by TLR9 antagonist under the stimulation of a ligand, such as ODN2006 (Cat. #: tlrl-2006-1, Invivogen, San Diego, California, USA), for incubation of 20 hrs. The cell culture supernatant SEAP reporter activity was determined using QUANTI-Blue™ kit (Cat. #: rep-qb1, Invivogen, San Diego, California, USA) at a wavelength of 640 nm, a detection medium that turns purple or blue in the presence of alkaline phosphatase.
HEK293-Blue-hTLR9 cells were incubated at a density of 250,000˜450,000 cells/mL in a volume of 170 μL in a 96-well plate in Dulbecco's Modified Eagle's medium (DMEM) containing 4.5 g/L glucose, 50 U/mL penicillin, […], 2 mM L-glutamine, 10% (v/v) heat-inactivated fetal bovine serum with addition of 20 μL test compound in a serial dilution in the presence of final DMSO at 1% and 10 μL of 20 uM ODN2006 in above DMEM, perform incubation under 37° C. in a CO2 incubator for 20 hrs. Then 20 μL of the supernatant from each well was incubated with 180 μL Quanti-blue substrate solution at 37° C. for 2 h and the absorbance was read at 620-655 nm using a spectrophotometer. The signaling pathway that TLR9 activation leads to downstream NF-κB activation has been widely accepted, and therefore similar reporter assay was modified for evaluating TLR9 antagonist.

SMILES	IC50 [nM]
C[C@@H]1CN(c2ccc(C#N)c3ncccc23)C[C@@H]2CCN(Cc3ccc(N4CCOC[C@H](N)C4)cn3)CCN21 [Example 21, 5-[(4R,10aS)-8-[[5-[(6R)-6-amino-1,4-oxazepan-4-yl]-2-pyridyl]methyl]-4-methyl-1,3,4,6,7,9,10,10a-octahydropyrazino[1,2-d][1,4]diazepin-2-yl]quinoline-8-carbonitrile]	105
C[C@@H]1CN(c2ccc(C#N)c3ncccc23)C[C@@H]2CCN(Cc3ccc(N4C[C@@H](N)[C@@H](F)C4)cn3)CCN21 [Example 20, 5-[(4R,10aS)-8-[[5-[(3R,4S)-3-amino-4-fluoro-pyrrolidin-1-yl]-2-pyridyl]methyl]-4-methyl-1,3,4,6,7,9,10,10a-octahydropyrazino[1,2-d][1,4]diazepin-2-yl]quinoline-8-carbonitrile]	34.9
C[C@@H]1CN(c2ccc(C#N)c3ncccc23)C[C@@H]2CCN(Cc3cc4c(cn3)CNCC4)CCN21 [Example 8, 5-[(4R,10aS)-4-methyl-8-(5,6,7,8-tetrahydro-2,7-naphthyridin-3-ylmethyl)-1,3,4,6,7,9,10,10a-octahydropyrazino[1,2-d][1,4]diazepin-2-yl]quinoline-8-carbonitrile]	62.2
C[C@@H]1CN(c2ccc(C#N)c3ncccc23)C[C@@H]2CCN(c3ccc4c(n3)CNCC4)CCN21 [Example 5, 5-[(4R,10aS)-4-methyl-8-(5,6,7,8-tetrahydro-1,7-naphthyridin-2-yl)-1,3,4,6,7,9,10,10a-octahydropyrazino[1,2-d][1,4]diazepin-2-yl]quinoline-8-carbonitrile]	72.1
C[C@@H]1CN(c2ccc(C#N)c3ncccc23)C[C@@H]2CCN(Cc3cc4c(cn3)CCNC4)CCN21 [Example 9, 5-[(4R,10aS)-4-methyl-8-(5,6,7,8-tetrahydro-2,6-naphthyridin-3-ylmethyl)-1,3,4,6,7,9,10,10a-octahydropyrazino[1,2-d][1,4]diazepin-2-yl]quinoline-8-carbonitrile]	35
CO[C@@H]1CN(c2cnc(CN3CC[C@H]4CN(c5ccc(C#N)c6ncccc56)C[C@@H](C)N4CC3)c(F)c2)C[C@H]1N [Example 24, 5-[(4R,10aS)-8-[[5-[(3R,4R)-3-amino-4-methoxy-pyrrolidin-1-yl]-3-fluoro-2-pyridyl]methyl]-4-methyl-1,3,4,6,7,9,10,10a-octahydropyrazino[1,2-d][1,4]diazepin-2-yl]quinoline-8-carbonitrile]	60.9
C[C@@H]1CN(c2ccc(C#N)c3ncccc23)C[C@@H]2CCN(Cc3cnc(N4CCNCC4)nc3)CCN21 [Example 14, 5-[(4R,10aS)-4-methyl-8-[(2-piperazin-1-ylpyrimidin-5-yl)methyl]-1,3,4,6,7,9,10,10a-octahydropyrazino[1,2-d][1,4]diazepin-2-yl]quinoline-8-carbonitrile]	70.5
C[C@@H]1CN(c2ccc(C#N)c3ncccc23)C[C@@H]2CCN(Cc3ncc(N4CCNCC4)cn3)CCN21 [Example 13, 5-[(4R,10aS)-4-methyl-8-[(5-piperazin-1-ylpyrimidin-2-yl)methyl]-1,3,4,6,7,9,10,10a-octahydropyrazino[1,2-d][1,4]diazepin-2-yl]quinoline-8-carbonitrile]	96.4
CO[C@@H]1CN(c2cnc(CN3CC[C@H]4CN(c5ccc(C#N)n6ncc(F)c56)C[C@@H](C)N4CC3)c(F)c2)C[C@H]1N [Example 27, 4-[(4R,10aS)-8-[[5-[(3R,4R)-3-amino-4-methoxy-pyrrolidin-1-yl]-3-fluoro-2-pyridyl]methyl]-4-methyl-1,3,4,6,7,9,10,10a-octahydropyrazino[1,2-d][1,4]diazepin-2-yl]-3-fluoro-pyrazolo[1,5-a]pyridine-7-carbonitrile]	65.4
C[C@@H]1CN(c2ccc(C#N)c3ncccc23)C[C@@H]2CCN(c3ccc4c(n3)CCNC4)CCN21 [Example 6, 5-[(4R,10aS)-4-methyl-8-(5,6,7,8-tetrahydro-1,6-naphthyridin-2-yl)-1,3,4,6,7,9,10,10a-octahydropyrazino[1,2-d][1,4]diazepin-2-yl]quinoline-8-carbonitrile]	101
C[C@@H]1CN(c2ccc(C#N)c3ncccc23)C[C@@H]2CCN(c3cc4c(cn3)CNCC4)CCN21 [Example 7, 5-[(4R,10aS)-4-methyl-8-(5,6,7,8-tetrahydro-2,7-naphthyridin-3-yl)-1,3,4,6,7,9,10,10a-octahydropyrazino[1,2-d][1,4]diazepin-2-yl]quinoline-8-carbonitrile]	81.9
C[C@@H]1CN(c2cc(=O)n(C)c3ncccc23)C[C@@H]2CCN(Cc3ccc4c(c3)CNCC4)CCN21 [Example 28, 4-[(4R,10aS)-4-methyl-8-(1,2,3,4-tetrahydroisoquinolin-7-ylmethyl)-1,3,4,6,7,9,10,10a-octahydropyrazino[1,2-d][1,4]diazepin-2-yl]-1-methyl-1,8-naphthyridin-2-one]	< 31.8
C[C@@H]1CN(c2ccc(C#N)c3ncccc23)C[C@@H]2CCN(Cc3cnc(N4CCNCC4)cn3)CCN21 [Example 15, 5-[(4R,10aS)-4-methyl-8-[(5-piperazin-1-ylpyrazin-2-yl)methyl]-1,3,4,6,7,9,10,10a-octahydropyrazino[1,2-d][1,4]diazepin-2-yl]quinoline-8-carbonitrile]	36.1
C[C@@H]1CN(c2ccc(C#N)c3ncccc23)C[C@@H]2CCN(c3ccc(N4CCNCC4)nc3)CCN21 [Example 1, 5-[(4R,10aS)-4-methyl-8-(6-piperazin-1-yl-3-pyridyl)-1,3,4,6,7,9,10,10a-octahydropyrazino [1,2-d][1,4]diazepin-2-yl]quinoline-8-carbonitrile]	207
C[C@@H]1CN(c2ccc(C#N)c3ncccc23)C[C@@H]2CCN(c3cnc(N4CCNCC4)nc3)CCN21 [Example 2, 5-[(4R,10aS)-4-methyl-8-(2-piperazin-1-ylpyrimidin-5-yl)-1,3,4,6,7,9,10,10a-octahydropyrazino[1,2-d][1,4]diazepin-2-yl]quinoline-8-carbonitrile]	59.3
C[C@@H]1CN(c2ccc(C#N)c3ncccc23)C[C@@H]2CCN(Cc3ccc(N4CCNCC4)cn3)CCN21 [Example 19, 5-[(4R,10aS)-4-methyl-8-[(5-piperazin-1-yl-2-pyridyl)methyl]-1,3,4,6,7,9,10,10a-octahydropyrazino[1,2-d][1,4]diazepin-2-yl]quinoline-8-carbonitrile]	45.8
C[C@@H]1CN(c2ccc(C#N)c3ncccc23)C[C@@H]2CCN(Cc3cnc4c(c3)CNCC4)CCN21 [Example 10, 5-[(4R,10aS)-4-methyl-8-(5,6,7,8-tetrahydro-1,6-naphthyridin-3-ylmethyl)-1,3,4,6,7,9,10,10a-octahydropyrazino[1,2-d][1,4]diazepin-2-yl]quinoline-8-carbonitrile]	< 31.8
C[C@@H]1CN(c2ccc(C#N)c3ncccc23)C[C@@H]2CCN(Cc3ccc(N4CCNCC4)nc3)CCN21 [Example 17, 5-[(4R,10aS)-4-methyl-8-[(6-piperazin-1-yl-3-pyridyl)methyl]-1,3,4,6,7,9,10,10a-octahydropyrazino[1,2-d][1,4]diazepin-2-yl]quinoline-8-carbonitrile]	< 31.8
